Source: patent publication US20200024246A1, “POGOSTONE DERIVATIVES AND METHODS OF USING THE SAME” (Hamyard Associates LLC, priority 2018, published 2020)
Converted amounts (≈) assume the structure as drawn. “Also recorded” adds a separate entry of the source. Read-outs that look alike come from different tables or passages of the source.

Experiments:
adult female mosquitoes = test: whole plant or invertebrate; details: for LD50: read-out: 24-hour Mortality LD50 (μg/g mosquito); for ranking in knockdown and mortality screenings: words
Description: The first group of DHAA-based derivatives that were tested included Formula A2, Formula B3, Formula C3, and Formula D3. A solution of 0.5% or 1.5% of each of these compounds was applied to the mosquitoes, as described above. […] Acetone was used as a control.

house flies [1] = test: Knockdown and mortality of DHAA-based derivatives on house flies; format: in vivo, house fly
Source text: Accordingly, further derivatives with structures similar to Formula C3 were synthesized and tested for knockdown potential and mortality in house flies and mosquitoes using an experimental design similar to the one described above. These compounds include Formula C5, Formula C6, Formula C7, Formula C8, Formula C9, and Formula C10.

[2] = system: adult female Aedes aegypti; test: Topical combination of Formula 13 with synthetic insecticides (FIGS. 6-9); format: in vivo; details: for 24-hr percentage mortality: 0.2 μL acetone, Formula 13 500 μg/mL, dibrom 10 μg/mL, thiamethoxam 100 μg/mL, permethrin 2.5 μg/mL, alone or in combination
Description: A low-dose concentration of Formula 13 (500 μg/mL) was applied in combination with chlorfenapyr (75 μg/mL), dibrom (10 μg/mL), thiamethoxam (100 μg/mL), and permethrin (2.5 μg/mL) to the pronotum of adult female Aedes aegypti in 0.2 μL of acetone. These concentrations were chosen as they produced little-to-no mortality at 24 hours after application. Knockdown (immobilization) was recorded at 1 hour after application and mortality was recorded at 24, 48, and 72 hours after initial application. These applications were run in parallel to a topical application of a combined mixture of 500 μg/mL Formula 13 and 75 μg/mL of chlorfenpayr to the pronotum of adult female mosquitoes. For this experiment, total of 25 mosquitoes were treated within each replicate, with a minimum of 3 replicates utilized for each treatment. Synergism was defined as the higher percentage mortality in the insecticidal combination of both Formula 13 and chlorfenapyr compared to each individual component applied by itself.

adult, female mosquitoes = test: Topical application on adult female mosquitoes (24-h mortality, 1-h knockdown); format: in vivo, mosquito; details: for ED50: read-out: KD50 (ug/g mosquito); for LD50: read-out: LD50 (ug/g mosquito); for insecticidal properties compared with natural pogostone, natural pyrethrins or terpenoids: words, refers to Table 1
[3] = system: 3-4 instar Aedes aegypti larvae; test: Mosquito larvicide bioassay; format: in vivo; details: for LC50: Aedes aegypti, 24 h
Description: Mosquito larvicide bioassays were performed by introducing various concentrations of test compounds (pyrone derivatives and rotenone) into acetone at various concentrations. 200 uL of these solutions were added to individual cups containing 10, 3-4 instar Aedes aegypti larvae and 25 mL of DI water. 2 mg of Tetramin™ was provided to each cup as a food source. […] Ataxia was used as the indicator of larval mortality. At least 5 concentrations were used which caused between 10 and 90% mortality. LC50 values were calculated using a PROC PROBIT model in SAS 9.4.

adult house flies = test: Topical application of pogostone derivatives with PBO or plant essential oil on house flies; format: in vivo, house fly
Description: Combinations of select pogostone derivatives with select concentrations of PBO or plant essential oils was performed. […] Synergists were applied as a subsequent application directly after the application of pogostone derivatives. Concentrations of synergists (plant oils or PBO) were chosen that produced no mortality at 24 hours when applied alone.
To assess the ability of PBO to increase the toxicity of a wide variety of pogostone derivatives, PBO and the pogostone derivatives were applied in combination to the pronotum of house flies.
Finally, the potential of plant essential oils to synergize the effect of Formula 30 was assessed.

house flies [4] = test: Topical application on house flies; details: for LD50 (ug/g fly): House Fly Toxicity, topical
adult flies = test: Contact toxicity on treated filter paper; format: in vivo; details: filter paper treated with 1 mL in acetone; 24 hours
Description: Filter papers were treated with 1 mL of the disclosed compounds in acetone at varying concentrations, and the filter papers were placed in a dish. Ten adult flies were added to each dish and a sugar pad was added to each dish to ensure that any mortality could be attributed to the compound instead of starvation. Mortality was assessed at 24 hours.

[5] = Mosquito Knockdown Properties (1 hour), topical application
[6] = Mosquito Toxicity (24 hours), topical application to pronotum
[7] = house flies, topical, derivative alone or in combination with PBO

## COCC(=O)c1c(O)cc(C)oc1=O [Formula C9]
Adult female mosquitoes
  Mosquito Knockdown at 0.5% concentration: 37%
  Mosquito Mortality at 0.5% concentration: 73%
  Mosquito Knockdown at 1.5% concentration: 53%
  Mosquito Mortality at 1.5% concentration: 70%
House flies [1]
  House Fly Knockdown at 0.5% concentration: 0%
  House Fly Mortality at 0.5% concentration: 5%
  House Fly Knockdown at 1.5% concentration: 1%
  House Fly Mortality at 1.5% concentration: 6%

## CN1COCN(Cc2cnc(Cl)s2)C1=N[N+](=O)[O-] [Thiamethoxam, 3-((2-chloro-5-thiazolyl)methyl)-5-methyl-4-nitroiminotetrahydro-1,3,5-oxadiazine]
[2]
  24-hr percentage mortality: 25.6%

## COP(=O)(OC)OC(Br)C(Cl)(Cl)Br (centres unmarked) [Dibrom]
[2]
  24-hr percentage mortality: 11%

## Cc1cc(O)c(C(=O)CSCC(=O)O)c(=O)o1 [Formula C6]
Adult female mosquitoes
  Mosquito Knockdown at 0.5% concentration: 27%
  Mosquito Mortality at 0.5% concentration: 43%
  Mosquito Knockdown at 1.5% concentration: 18%
  Mosquito Mortality at 1.5% concentration: 15%
House flies [1]
  House Fly Knockdown at 0.5% concentration: 2.5%
  House Fly Mortality at 0.5% concentration: 10%
  House Fly Knockdown at 1.5% concentration: 7%
  House Fly Mortality at 1.5% concentration: 6%

## CC(C)C(=O)c1c(O)c2cc(Cl)ccc2oc1=O [Formula 34]
adult, female mosquitoes; [5]
  ED50: > 1500 mg/kg
adult, female mosquitoes; [6]
  LD50: 111 mg/kg
adult, female mosquitoes
  insecticidal properties compared with natural pogostone, natural pyrethrins or terpenoids: possessed better insecticidal properties than natural pogostone

## CCOC(=O)/C(C(C)=O)=C(/O)c1ccccc1 [Formula 28]
[3]
  LC50: 9.16 µg/mL
[3]; words
  larvicidal properties compared with natural pogostone or rotenone: possessed better larvicidal properties than natural pogostone
adult, female mosquitoes; topical, 1 h
  ED50: > 1500 mg/kg
adult, female mosquitoes; topical, 24 h
  LD50: > 1500 mg/kg

## CCC(=O)c1c(O)cc(C)oc1=O [Formula 7]
adult, female mosquitoes; [5]
  ED50: > 1500 mg/kg
adult, female mosquitoes; [6]
  LD50: > 1500 mg/kg

## CC(C)C(=O)c1c(O)c2ccccc2oc1=O [Formula 19]
Adult female mosquitoes; mosquito, topical, 1 hour
  1-hour Knockdown EC50 (μg/g mosquito): 384.5 μg/g mosquito
Adult female mosquitoes; topical, 24 h
  LD50: 25 mg/kg
Adult house flies; [7]
  LD50: 1495 µg/g
adult, female mosquitoes; topical, 1 h
  ED50: 384 mg/kg
adult, female mosquitoes; topical, 24 h
  LD50: 24.7 mg/kg
adult, female mosquitoes
  insecticidal properties compared with natural pogostone, natural pyrethrins or terpenoids: possessed better insecticidal properties at least as well as natural pyrethrins
House flies [4]
  LD50 (ug/g fly): 1495 ug/g fly

## O=C(c1c(O)c2ccccc2oc1=O)C1CCC1 [Formula 27]
Adult female mosquitoes; in vivo
  1-hour Knockdown EC50 (μg/g mosquito): >1500 μg/g mosquito
Adult female mosquitoes; topical, 24 h
  LD50: 29 mg/kg
adult, female mosquitoes; topical, 1 h
  ED50: > 1500 mg/kg
adult, female mosquitoes; topical, 24 h
  LD50: 28.8 mg/kg
adult, female mosquitoes
  insecticidal properties compared with natural pogostone, natural pyrethrins or terpenoids: possessed better insecticidal properties at least as well as natural pyrethrins

## Cc1ccc(C(C)C)cc1O [Carvacrol, reference compound]
Adult female mosquitoes; topical, 24 h
  LD50: 3400 mg/kg
adult, female mosquitoes; topical, 1 h
  ED50: 2000 mg/kg
adult, female mosquitoes; topical, 24 h
  LD50: 3400 mg/kg

## Cc1ccc2oc(=O)c(C(=O)CCC(C)C)c(O)c2c1 [Formula 21]
adult, female mosquitoes; topical, 1 h
  ED50: > 1500 mg/kg
adult, female mosquitoes; topical, 24 h
  LD50: 534 mg/kg

## C=C(C)[C@H]1Cc2c(ccc3c2O[C@@H]2COc4cc(OC)c(OC)cc4[C@@H]2C3=O)O1 [Rotenone, reference compound]
[3]
  LC50: 0.35 µg/mL (≈ 0.887 µM)

## O=C(c1c(O)c2ccccc2oc1=O)C(Cl)Cl [Formula 31]
Adult house flies; [7]
  LD50 (μg/g): >6,000 μg/g
adult, female mosquitoes; [5]
  ED50: > 1500 mg/kg
adult, female mosquitoes; [6]
  LD50: > 1500 mg/kg
House flies [4]
  LD50 (ug/g fly): >6,000 ug/g fly

## CC(=O)C1=Cc2ccccc2OC1 [Formula 16]
adult, female mosquitoes; topical, 24 h
  LD50: > 1500 mg/kg

## CCCCCCCC(=O)c1c(O)c2ccccc2oc1=O [Formula 25]
adult, female mosquitoes; topical, 1 h
  ED50: > 1500 mg/kg
adult, female mosquitoes; topical, 24 h
  LD50: > 1500 mg/kg

## CCOCn1c(-c2ccc(Cl)cc2)c(C#N)c(Br)c1C(F)(F)F [chlorfenapyr, 4-bromo-2-(4-chlorophenyl)-1-ethoxymethyl-5-trifluoromethylpyrrol-3-carbonitrile]
[2]; chlorfenapyr 75 ug/mL, Formula 13 500 ug/mL, alone or combined, words
  percentage mortality at 24 hour: very low mortality

## C=C(C)C(O)CC(=O)c1c(O)cc(C)oc1=O (centres unmarked) [Formula C19]
Adult female mosquitoes; Culicidae, topical, 1 h, read-out: Knockdown at 0.5%
  pest or weed control at 0.5 %: 83%
Adult female mosquitoes; Culicidae, topical, 1 h, read-out: Knockdown at 1.5%
  pest or weed control at 1.5 %: 83%
Adult female mosquitoes; Culicidae, topical, 24 h, read-out: Mortality at 0.5%
  mortality at 0.5 %: 83%
Adult female mosquitoes; Culicidae, topical, 24 h, read-out: Mortality at 1.5%
  mortality at 1.5 %: 77%
Adult female mosquitoes
  ranking in knockdown and mortality screenings: appear to be the most potent insecticidal compounds
Adult flies
  percent mortality, 0.10% Concentration: 0%
  percent mortality, 0.25% Concentration: 0%
  percent mortality, 0.50% Concentration: 0%

## CCOC(=O)/C(O)=C/C(=O)c1c(O)cc(C)oc1=O [Formula 8]
adult, female mosquitoes; [5]
  ED50: > 1500 mg/kg
adult, female mosquitoes; [6]
  LD50: > 1500 mg/kg

## CC(C)CCC(=O)c1c(O)cc(C(C)(C)C)oc1=O [Formula 11]
adult, female mosquitoes; [5]
  ED50: > 1500 mg/kg
adult, female mosquitoes; [6]
  LD50: > 1500 mg/kg

## CC1(C)C(C=C(Cl)Cl)C1C(=O)OCc1cccc(Oc2ccccc2)c1 (racemic) [Permethrin, 3-phenoxybenzyl (1RS)-cis,trans-3-(2,2-dichlorovinyl)-2,2-dimethylcyclopropanecarboxylate]
[2]
  24-hr percentage mortality: 28%

## CC(C)C(=O)c1c(O)c2cc(F)ccc2oc1=O [Formula 30]
Adult house flies; 1% CWT, dose-response curves FIG. 11
  toxicity of Formula 30 in combination with cedarwood (Texas type) oil (CWT): significant increase in toxicity; also recorded: shifting the dose-response curve to the left
Adult house flies; 1% PBO, dose-response curves FIG. 11
  toxicity of Formula 30 in combination with PBO: significant increase in toxicity; also recorded: shifting the dose-response curve to the left
Adult house flies; [7]
  LD50: 645 µg/g
adult, female mosquitoes; [5]
  ED50: > 1500 mg/kg
adult, female mosquitoes; [6]
  LD50: 45.6 mg/kg
adult, female mosquitoes
  insecticidal properties compared with natural pogostone, natural pyrethrins or terpenoids: possessed better insecticidal properties than natural pogostone
House flies [4]
  LD50 (ug/g fly): 645 ug/g fly
House flies [4]; words
  toxicity to house flies: extremely effective at killing house flies

## CC(C)CCC(=O)C1=Cc2ccccc2OC1 [Formula 17]
adult, female mosquitoes; topical, 1 h
  ED50: > 1500 mg/kg
adult, female mosquitoes; topical, 24 h
  LD50: > 1500 mg/kg

## Cc1cc(O)c(C(=O)COCc2ccccc2)c(=O)o1 [Formula C7]
Adult female mosquitoes
  Mosquito Knockdown at 0.5% concentration: 10%
  Mosquito Mortality at 0.5% concentration: 23%
  Mosquito Knockdown at 1.5% concentration: 20%
  Mosquito Mortality at 1.5% concentration: 15%
House flies [1]
  House Fly Knockdown at 0.5% concentration: 2.5%
  House Fly Mortality at 0.5% concentration: 13%
  House Fly Knockdown at 1.5% concentration: 1%
  House Fly Mortality at 1.5% concentration: 9%

## CCOCC(=O)c1c(O)cc(C)oc1=O [Formula C8]
Adult female mosquitoes
  Mosquito Knockdown at 0.5% concentration: 43%
  Mosquito Mortality at 0.5% concentration: 73%
  Mosquito Knockdown at 1.5% concentration: 80%
  Mosquito Mortality at 1.5% concentration: 80%
  ranking in knockdown and mortality screenings: performed the best in the initial knockdown and mortality screenings
Adult female mosquitoes; mosquito, topical, 1 hour
  1-hour Knockdown EC50 (μg/g mosquito): 661 μg/g mosquito
Adult female mosquitoes; topical, 24 h
  LD50: 256 mg/kg
House flies [1]
  House Fly Knockdown at 0.5% concentration: 0%
  House Fly Mortality at 0.5% concentration: 3%
  House Fly Knockdown at 1.5% concentration: 2%
  House Fly Mortality at 1.5% concentration: 13%
